Entries after “also recorded” stand apart in the source; their conditions may differ. Like-named read-outs stand apart in the source and are kept apart here.
Legend:
TZM-bl cells [1] = assay: MTT cell proliferation; details: for TI (toxicity index; ratio of cytotoxicity to neutralization IC50 values): MTT assay; for cellular cytotoxicity (in words): MTT cell proliferation assay; for cytotoxic at concentrations above: cellular cytotoxicity assays
[2] = system: HIV-1 BaL virions (gp120); assay: HIV-1 virion capture assay with gp120-specific mAbs; assay type: binding; details: peptide 50 μM; sCD4–2D-treated HIV-1 BaL; captured p24 Gag by AlphaLISA
[3] = Peptide stability in PBS and cell growth medium with serum; assay type: in vitro ADME; details: PBS and cell growth medium (DMEM) complemented with fetal bovine serum, 37 °C, 5% CO2, 24 h monitoring; LC–MS
[4] = system: amphotropic pseudotyped murine leukemia virus; assay: Neutralization of amphotropic pseudotyped murine leukemia virus; assay type: cell-based
[5] = system: vesicular stomatitis virus; assay type: cell-based
[6] = system: HIV-1 YU2 pseudotyped viral particles; details: read-out: IC50 YU2 (R5); TZM-bl cells; cited from earlier work
HIV-1 BaL26 (R5) = details: read-out: IC50 BaL26 (R5); TZM-bl cells; cited from earlier work
HIV-1 HxB2 (X4) = details: read-out: IC50 HxB2 (X4); cited from earlier work
HIV-1 NL4–3 (X4) = details: read-out: IC50 NL4–3 (X4); cited from earlier work
TZM-bl cells [7] = details: effects on host cell line TZM-bl; cited from earlier work
[8] = system: YU2 pseudotyped HIV virus; details: combination 2C:Nt, cited from earlier work
[9] = system: HIV-1 YU2 pseudotyped viral particles; details: neutralization assay

## Ac-CSSYFPWSQYQWWK-NH2 [30-2]
TZM-bl cells [1]
  TI (toxicity index; ratio of cytotoxicity to neutralization IC50 values): >500 µM
  cellular cytotoxicity (in words): nontoxic at relevant concentrations
TZM-bl cells [1]; effects on host cell line TZM-bl, standard deviations averaged 20%, Non-toxic = nontoxic at 500 μM
  LC50: Non-toxic^f

## Ac-CSSHFPYSQYQFWK-NH2 [2C, reference compound]
[2]
  inhibition of virion capture by mAb 19b: effectively blocked virus capture
  inhibition of virion capture by mAb 268-D: effectively blocked virus capture
  inhibition of virion capture by mAb 48d: effectively blocked virus capture; also recorded: to a lesser extent
  inhibition of virion capture by mAb B4e8 (V3 tip): neither 2C nor 40-2 blocked capture; also recorded: neither inhibited virion capture
  inhibition of virion capture by mAb D19 (V3 tip): neither 2C nor 40-2 blocked capture; also recorded: neither inhibited virion capture
[3]
  glutathione (GST) adducts detected starting around: around 30 min
[4]
  activity toward amphotropic pseudotyped murine leukemia virus (in words): inactive
[5]
  activity toward vesicular stomatitis virus (in words): inactive
[6]
  IC50: 28 ± 7 µM
HIV-1 BaL26 (R5)
  IC50: 65 ± 3 µM
HIV-1 HxB2 (X4)
  IC50: 54 µM
HIV-1 NL4–3 (X4)
  IC50: 53 ± 2 µM
TZM-bl cells [7]
  LC50: 190 µM
[8]; ratio 1:1
  dose reduction index (DRI): 2.1 ± 0.4
[8]; ratio 1:2
  dose reduction index (DRI): 2.6 ± 0.5
[8]; ratio 1:5
  dose reduction index (DRI): 4.9 ± 1.0

## Ac-SSHFPWSQRQFWK-NH2 [14-2]
TZM-bl cells [1]
  TI (toxicity index; ratio of cytotoxicity to neutralization IC50 values): >500 to 1000 µM

## Ac-CSSYFPFSQYQFWK-NH2 [18-2]
TZM-bl cells [1]
  TI (toxicity index; ratio of cytotoxicity to neutralization IC50 values): >63 to 125 µM
  cytotoxic at concentrations above: above 65 μM

## Ac-CSSHFPYSQFQFWK-NH2 [16-4]
TZM-bl cells [1]
  TI (toxicity index; ratio of cytotoxicity to neutralization IC50 values): >100 µM
  cellular cytotoxicity (in words): cytotoxic

## Ac-SSHFPWSQYQFWK-NH2 [12-4]
[9]
  activity against R5-tropic strain YU2 (in words): modest gains in potency
TZM-bl cells [1]
  TI (toxicity index; ratio of cytotoxicity to neutralization IC50 values): >500 µM

## Ac-SSHFPWSQVQFWK-NH2 [14-6]
[9]
  activity against R5-tropic strain YU2 (in words): low activity
TZM-bl cells [1]
  TI (toxicity index; ratio of cytotoxicity to neutralization IC50 values): >200 µM

## Ac-SSHFPYSQYQFWK-NH2 [12-1]
TZM-bl cells [1]
  TI (toxicity index; ratio of cytotoxicity to neutralization IC50 values): >500 to 1000 µM

## Ac-SSHFPFSQRQFWK-NH2 [14-1]
TZM-bl cells [1]
  TI (toxicity index; ratio of cytotoxicity to neutralization IC50 values): >500 to 1000 µM

## Ac-CSSHFPFSQVQFWK-NH2 [16-6]
TZM-bl cells [1]
  TI (toxicity index; ratio of cytotoxicity to neutralization IC50 values): >5 µM
  cellular cytotoxicity (in words): cytotoxic

## Ac-SSHFPFSQYQFWK-NH2 [12-2]
[9]
  activity against R5-tropic strain YU2 (in words): modest gains in potency
TZM-bl cells [1]
  TI (toxicity index; ratio of cytotoxicity to neutralization IC50 values): >500 µM

## Ac-CSSYFPFSQYQWWK-NH2 [20-2]
[3]
  glutathione (GST) adducts detected starting around: around 30 min
TZM-bl cells [1]
  TI (toxicity index; ratio of cytotoxicity to neutralization IC50 values): >250 µM
  cellular cytotoxicity (in words): nontoxic at relevant concentrations

## Ac-YSSYFPFSQYQWWK-NH2 [40-2]
[2]
  inhibition of virion capture by mAb 19b: effectively blocked virus capture
  inhibition of virion capture by mAb 268-D: effectively blocked virus capture
  inhibition of virion capture by mAb 48d: effectively blocked virus capture; also recorded: to a lesser extent
  inhibition of virion capture by mAb B4e8 (V3 tip): neither 2C nor 40-2 blocked capture; also recorded: neither inhibited virion capture
  inhibition of virion capture by mAb D19 (V3 tip): neither 2C nor 40-2 blocked capture; also recorded: neither inhibited virion capture
[3]
  glutathione (GST) adduct formation (in words): never detected GST adducts
TZM-bl cells [1]
  TI (toxicity index; ratio of cytotoxicity to neutralization IC50 values): >250 µM
  cellular cytotoxicity (in words): nontoxic at relevant concentrations

## Ac-SSHFPVSQYQFWK-NH2 [12-3]
[9]
  activity against R5-tropic strain YU2 (in words): modest gains in potency
TZM-bl cells [1]
  TI (toxicity index; ratio of cytotoxicity to neutralization IC50 values): >5 µM
  cellular cytotoxicity (in words): cytotoxic

## Ac-CSSHFPWSQVQFWK-NH2 [16-7]
TZM-bl cells [1]
  TI (toxicity index; ratio of cytotoxicity to neutralization IC50 values): >75 µM
  cellular cytotoxicity (in words): cytotoxic

## Ac-CSSYYPFSQYQWWK-NH2 [20-5]
TZM-bl cells [1]
  cellular cytotoxicity (in words): nontoxic at relevant concentrations

## Ac-SSHFPFSQVQFWK-NH2 [14-5]
[9]
  activity against R5-tropic strain YU2 (in words): low activity
TZM-bl cells [1]
  TI (toxicity index; ratio of cytotoxicity to neutralization IC50 values): >500 µM

## Ac-CSSHFPFSQFQFWK-NH2 [16-5]
TZM-bl cells [1]
  TI (toxicity index; ratio of cytotoxicity to neutralization IC50 values): >50 µM
  cellular cytotoxicity (in words): cytotoxic

## Ac-CSSHFPFSQYQFWK-NH2 [16-2]
TZM-bl cells [1]
  TI (toxicity index; ratio of cytotoxicity to neutralization IC50 values): >63 to 250 µM
  cytotoxic at concentrations above: above 65 μM

Source: paper PMC7261408 (Molecular pharmaceutics, 2017)
